# Patent publication US12653860B2, “Compositions and methods for editing beta-globin for treatment of hemaglobinopathies” (Vertex Pharmaceuticals Incorporated, priority 2019, dated 2026)
# What was measured:
# Type in all cases: cell-based
# [1] = tested on: GFP gene encoded in the AAVS1 locus of HEK293 T cells; test: GFP to BFP reporter assay of HDR repair (BFP fluorescence); conditions: four ssODNs
# Method: (§1) The effect of DNA PK inhibition by Nu7441 correction of a DSB by the NHEJ pathway (e.g., introduce an indel at the DSB site) or HDR pathway (e.g., introduce a gene mutation encoded by a homology donor at the DSB site) was assessed using the reporter system described in Example 1. In this case gene-editing was evaluated in HEK293 T cells expressing GFP in the AAVS1 locus. To introduce a gene edit that converts GFP to BFP, cells were electroporated with ribonucleoprotein (RNP) comprised of Cas9 and gRNA1 (GFP target sequence identified by SEQ ID NO: 9; sgRNA spacer sequence identified by SEQ ID NO: 10) or gRNA2 (GFP target sequence identified by SEQ ID NO: 11; sgRNA spacer identified by SEQ ID NO: 12) that targets the GFP gene encoded in the AAVS1 locus. The cells were also transfected with ssODNs that encoded the gene correction necessary to convert GFP to BFP and homology arms complimentary to the sequence upstream and downstream of the target gene cut site. The efficiency of HDR repair was determined by measuring the level of cell BFP fluorescence. The efficiency of cutting (indel information) was monitored by TIDE analysis.
# Shown in FIGS. 2A-2B is a comparison of HDR editing efficiency for cells treated with Nu7441, SCR7, or RS-1. Shown in FIG. 2A are cells were electroporated with RNP comprising Cas9 and gRNA1 (GFP target sequence shown in SEQ ID NO: 9; sgRNA spacer sequence identified by SEQ ID NO: 10). 2×10^5 cells were edited with 1 μM Cas9 and 1.5 μM gRNA1. The cells were transfected with four different ssODNs. These included ssODN 1067 (SEQ ID NO: 29) and ssODN 1069 (SEQ ID NO: 31) that are complimentary to the DNA strand containing the PAM sequence and ssODN 1068 (SEQ ID NO: 30) and ssODN 1070 (SEQ ID NO: 32) that are complimentary to the DNA strand not containing the PAM sequence. Cells were edited with 100 μM ssODN. A concentrated stock solution of each inhibitor was prepared in DMSO and diluted to a final concentration of 2.5 μM Nu7441, 1.25 μM SCR7, or 10 μM RS-1. HDR efficiency was compared relative to treatment with DMSO alone or to treatment with RNP-only.
# Shown in FIG. 2B are cells were electroporated with RNP comprising Cas9 and gRNA2 (GFP target sequence shown in SEQ ID NO: 11; sgRNA spacer sequence shown in SEQ ID NO: 12). The cells were transfected with four different ssODNs. These included ssODN 1061 (SEQ ID NO: 33) and ssODN 1063 (SEQ ID NO: 35) that are complimentary to the DNA strand containing the PAM sequence and ssODN 1062 (SEQ ID NO: 34) and ssODN 1064 (SEQ ID NO: 36) that are complimentary to the DNA strand not containing the PAM sequence.
# [2] = tested on: GSD1a locus in HEK293 T cells; test: Gene correction by NHEJ repair at GSD1a locus with dsDNA donors; conditions: dsDNA donors 50-0 or 150-0; 2.5 μM Nu7441, 1.25 μM SCR7 or 10 μM RS-1; vs DMSO alone; FIG. 3
# Method: The effect of Nu7441 treatment on gene correction by the NHEJ pathway was also evaluated. To do so, the cells were transfected with two different dsDNA donors: 50-0 (SEQ ID NO: 37) or 150-0 (SEQ ID NO: 38). Cells were edited with 1.5 g dsDNA donor. These dsDNA donors, lacking homology arms, introduce a second 3′ splice site into exon 2 at the GSD1a locus when inserted into the cut site induced by the Cas9-guide complex by NHEJ repair. The cells were treated with 2.5 μM Nu7441, 1.25 μM SCR7, or 10 μM RS-1 and gene correction by NHEJ repair was evaluated. […] Treatment with SCR7 or RS-1 had no effect over DMSO alone.
# [3] = tested on: GFP gene encoded in the AAVS1 locus of HEK293 T cells; test: Indel formation by TIDE analysis, GFP to BFP edit; conditions: regardless of ssODN or gRNA; vs DMSO control; FIGS. 2C-2D
# Method: as §1
# Shown in FIGS. 2C-2D is a measure of indel formation performed by TIDE analysis for the same edits that are described for FIGS. 2A-2B. […] Thus, the DNA PK inhibitor Nu7441 achieves reduced repair of a DSB by the NHEJ pathway when a homology donor is provided.
# [4] = gRNA1, 2.5 μM Nu7441, 1.25 μM SCR7 or 10 μM RS-1, vs DMSO alone, FIG. 2A
SMILES,"HDR efficiency [1, 4]","HDR efficiency ([1]; gRNA2, 2.5 μM Nu7441)",gene correction by NHEJ repair [2],indel formation at the DSB site [3]
O=c1cc(N2CCOCC2)oc2c(-c3cccc4c3sc3ccccc34)cccc12 [Nu7441],improved HDR efficiency,improved HDR efficiency,substantial decrease in gene correction,decreased indel formation
O=C(Nc1ccc(Br)cc1)c1ccc(Br)c(S(=O)(=O)NCc2ccccc2)c1 [RS-1],no improvement in HDR efficiency,,no effect,reduction compared to a DMSO control
O=c1[nH]c(=S)[nH]c(N=Cc2ccccc2)c1N=Cc1ccccc1 [SCR7],no improvement in HDR efficiency,,no effect,reduction compared to a DMSO control
